The values below come from ChEMBL document CHEMBL5335829, “Akedanones A-C, In Vitro and In Vivo Antiplasmodial 2,3-Dihydronaphthoquinones Produced by Streptomyces sp. K20-0187” (J Nat Prod, 2024).

≈ marks a conversion by molar mass, not a printed value. Calls of active or inactive are those of the source. The rule behind the calls is not given here. Some results are limits rather than exact numbers.

By IC50 is commonly meant the concentration that inhibits the measured activity by half.

Series [1] can be described thus: Toxicity in ICR mouse assessed as body weight loss at 5 mg/kg, ip measured for 4 days. It is filed as organism-based. The settings on record: in vivo, 96 h, time 4 day.
A further series concerns Plasmodium berghei. The experiment in a line: Antiplasmodial activity against Plasmodium berghei infected in ICR mouse model assessed as reduction in parasitaemia at 5 mg/kg, ip measured for 4 days by peters 4 day suppressive test. Type of series: functional. Details: scale not given: the % may be the effect or the level left.
Series [2] can be described thus: Cytotoxicity against human MRC5 cells assessed as inhibition of cell growth. Type of series: toxicity, cell-based.
A short description of series [3]: Selectivity index, ratio of IC50 for cytotoxicity against human MRC5 cells assessed as inhibition of cell growth to IC50 for antiplasmodial activity against […] assessed as parasite growth inhibition. Type of series: toxicity, cell-based. Particulars: MRC5 cells versus Plasmodium falciparum FCR3, read-out: Ratio IC50.

Series [4] concerns Plasmodium falciparum. The experiment in a line: Antiplasmodial activity against chloroquine-resistant Plasmodium falciparum K1 assessed as parasite growth inhibition. It is filed as functional, organism-based.
The nature of series [5]: Selectivity index, ratio of IC50 for cytotoxicity against human MRC5 cells assessed as inhibition of cell growth to IC50 for antiplasmodial activity against chloroquine-resistant Plasmodium falciparum K1 assessed as parasite growth inhibition. It is filed as toxicity, cell-based. The settings on record: MRC5 cells versus Plasmodium falciparum K1, read-out: Ratio IC50.
The next series relates to Xanthomonas oryzae. The experiment in a line: Antimicrobial activity against Xanthomonas oryzae KB88 assessed as reduction in bacterial growth incubated for 1 to 2 days by paper disc method. It is filed as functional, organism-based. Particulars: time 1-2 day.
Series [6] concerns Plasmodium falciparum. The experiment in a line: Antiplasmodial activity against chloroquine-sensitive Plasmodium falciparum FCR3 assessed as parasite growth inhibition. It is filed as functional, organism-based.
Another series relates to Escherichia coli. The experiment in a line: Antimicrobial activity against Escherichia coli KB213 NIHJ assessed as reduction in bacterial growth incubated for 1 to 2 days by paper disc method. Type of series: functional, organism-based. Particulars: time 1-2 day.
The next series has as its system Candida albicans. The experiment in a line: Antimicrobial activity against Candida albicans KF assessed as reduction in […] growth KF1 ATCC 64584 incubated for 1 to 2 days by paper disc method. Type of series: functional, organism-based. Particulars: time 1-2 day.
Series [7] relates to Kocuria rhizophila. The experiment in a line: Antimicrobial activity against Kocuria rhizophila KB212 ATCC 9341 assessed as reduction in bacterial growth incubated for 1 to 2 days by paper disc method. It is filed as functional, organism-based. Particulars: time 1-2 day.
Series [8] relates to Kocuria rhizophila. The experiment in a line: Antimicrobial activity against Kocuria rhizophila KB212 ATCC 9341 at 30 ug incubated for 1 to 2 days by paper disc method. It is filed as functional, organism-based. The settings on record: dose 30.0 µg, time 1-2 day.
For series [9], the system named is Staphylococcus aureus. The experiment in a line: Antimicrobial activity against Staphylococcus aureus KB210 ATCC 6538P assessed as reduction in bacterial growth incubated for 1 to 2 days by paper disc method. It is filed as functional, organism-based. The settings on record: time 1-2 day.
Series [10] concerns Staphylococcus aureus. The experiment in a line: Antimicrobial activity against Staphylococcus aureus KB210 ATCC 6538P at > 10 ug incubated for 1 to 2 days by paper disc method. It is filed as functional, organism-based. The settings on record: dose > 10.0 µg, time 1-2 day.
Series [11] in a line: Acute toxicity in ICR mouse assessed as sedation at 60 mg/kg, ip and measured for 2 hrs. It is filed as organism-based. The settings on record: in vivo.
The next series relates to HeLa S3. The experiment in a line: Cytotoxicity against human HeLa S3 cells assessed as reduction in cell growth incubated for 3 days. Particulars: HeLa S3, 72 h. It is filed as functional, cell-based.
Another series concerns B16. The experiment in a line: Cytotoxicity against mouse B16 cells assessed as reduction in cell growth incubated for 3 days. It is filed as functional, cell-based. Particulars: B16, 72 h.
Series [12] can be described thus: Selectivity index, ratio of IC50 for cytotoxicity against human MRC5 cells assessed as inhibition of cell growth to IC50 for antimalarial activity against […] assessed as parasite growth inhibition. Type of series: toxicity, cell-based. The settings on record: MRC5 cells versus Plasmodium falciparum FCR3, read-out: Ratio IC50.

A short description of series [13]: Selectivity index, ratio of IC50 for cytotoxicity against human MRC5 cells assessed as inhibition of cell growth to IC50 for antimalarial activity against chloroquine-resistant Plasmodium falciparum K1 assessed as parasite growth inhibition. It is filed as toxicity, cell-based. Particulars: MRC5 cells versus Plasmodium falciparum K1, read-out: Ratio IC50.
Series [14] concerns Plasmodium falciparum. The experiment in a line: Antimalarial activity against chloroquine-resistant Plasmodium falciparum K1 assessed as parasite growth inhibition. It is filed as functional, organism-based.
The subject of series [15] is Plasmodium falciparum. The experiment in a line: Antiplasmodial activity against Plasmodium falciparum Dd2 assessed as inhibition of parasite growth. It is filed as functional, organism-based.

`C[C@H]1[C@H](OC(=O)CCC(=O)O)O[C@@H]2O[C@@]3(C)CC[C@H]4[C@H](C)CC[C@@H]1[C@@]24OO3` [ARTESUNATE]: the figures for the Activity result (in series [1]; in the series on Plasmodium berghei) were “Non-Toxic” and 94.2%, respectively.
Consider `COC1=C(C)C(=O)c2c(cc3c(c2O)C(C)(CCC=C(C)C)C(C)O3)C1=O` (centres undefined), for which the half-maximal inhibitory concentration (IC50) in [2] is 1.7 µM; with Plasmodium falciparum [4] it was 0.3 µM; in the series with Plasmodium falciparum [6] it was 0.06 µM. Further, the selectivity ratio in series [3] is 28.3; in [5], 5.7. The Activity result is recorded as “Non-Toxic” in [1] and 43.1% in the series on Plasmodium berghei. In addition, the outcome with Xanthomonas oryzae, in the series on Escherichia coli, in the series with Candida albicans, in the series with Kocuria rhizophila [7] and in the series on Staphylococcus aureus [9] was Active. Moreover, the outcome with Kocuria rhizophila [8] was inactive.
As to `C=CC(C)(C)c1c(O)cc2c(c1O)C(=O)[C@@](C)(O)[C@H](CC=C(C)C)C2=O`, the IC50 in series [2] turned out to be 94.2 µM; in the series with Plasmodium falciparum [4] it was 43.3 µM; with Plasmodium falciparum [6] it was 51.2 µM. Further, the values for the selectivity ratio in [3] and in series [5] were 1.8 and 2.2, respectively. Also, the result in the series with Xanthomonas oryzae, with Staphylococcus aureus [10], in the series with Escherichia coli, in the series on Candida albicans, with Kocuria rhizophila [7] and with Staphylococcus aureus [9] was Active.
As to `C=CC(C)(C)c1c(O)cc2c(c1O)C(=O)[C@@]1(C)O[C@@]1(CC=C(C)C)C2=O`, the IC50 in [2] was 0.7 µM; in the series on Plasmodium falciparum [4] it was 0.2 µM; in the series on Plasmodium falciparum [6], 0.08 µM. Besides, the selectivity ratio was determined as 8.8 in [3] and 3.5 in [5]. The Activity entry in [1] is reported as “Non-Toxic”; in series [11], “Non-Toxic”; in the series on Plasmodium berghei it was 47.6%. Moreover, the result in the series with Xanthomonas oryzae, in the series on Staphylococcus aureus [10], with Escherichia coli, in the series with Candida albicans, in the series on Kocuria rhizophila [7] and in the series with Staphylococcus aureus [9] was Active.
In the case of `COC1=C(C)C(=O)c2c(cc(O)c3c2O[C@H](C)[C@]3(C)CCC=C(C)C)C1=O`, the half-maximal inhibitory concentration (IC50) stood at 1.22 µg/mL (≈ 3.29 µM) in the series with HeLa S3 and 0.63 µg/mL (≈ 1.7 µM) in the series on B16.
In the case of `CCN(CC)CCCC(C)Nc1ccnc2cc(Cl)ccc12` (centres undefined) [CHLOROQUINE], the 50% inhibitory concentration (IC50) in series [2] was > 25 µM.
In the case of `C=CC(C)(C)c1c(O)cc2c(c1O)C(=O)[C@@](C)(O)[C@@H](CC=C(C)C)C2=O`, the half-inhibitory concentration (IC50) in series [2] stood at 68.8 µM; in the series on Plasmodium falciparum [4], 14.5 µM; in the series with Plasmodium falciparum [6], 21.7 µM. Besides, the figures for the selectivity ratio in series [3] and in [5] were 3.2 and 4.7, respectively. The outcome in the series on Xanthomonas oryzae, with Staphylococcus aureus [10], with Escherichia coli, in the series on Candida albicans, in the series with Kocuria rhizophila [7] and with Staphylococcus aureus [9] was Active.
Regarding `C[C@@H]1CC[C@H]2[C@@H](C)C(=O)O[C@@H]3O[C@@]4(C)CC[C@@H]1[C@]32OO4` [ARTEMISININ], the figures for the IC50 (in series [2]; with Plasmodium falciparum [14]) were > 25 µM and 0.03 µM, respectively. In addition, the selectivity ratio in series [12] and in series [13] was > 800 each time.
Turning to `CC(C)=CCC1=C(O)C(=O)c2c(O)ccc(O)c2C1=O`, the IC50 in the series on Plasmodium falciparum [15] came out at 0.82 µg/mL (≈ 2.99 µM).
